# Results from patent US12441985B2, “Methods for making insulin in vivo” (priority 2009, dated 2025).
# Where “and” joins values, the source holds several entries; their conditions need not be identical. Equal entries are not always repeated. Where two headings read alike, the source gives them in different places.
# Key:
# Type in all cases: cell-based
# [1] = system: human embryonic stem cells line H1; details: for type of insulin expressing cells formed: 500 nM, after six days; for GCG (glucagon expressing cells), percentage of the total cell population / INS (single insulin expressing cells), percentage of the total cell population / INS/GCG (insulin and glucagon co-expressing cells), percentage of the total cell population / Synaptophysin, percentage of the total cell population: Stage 4 six days, TPB 500 nM, ILV 500 nM, GÖ 6976 5 μM, FACS
# Description: Other protein kinase C activators were also tested. These were Indolactam V (ILV) (Axxora; Cat #ALX-420-011-C300) and phorbol-12-myristate-13-acetate (PMA) (Calbiochem; Cat #524400).
# [2] = system: human embryonic stem cell line H1; assay: Pancreatic endoderm marker expression after Stage 3 TPB treatment (Example 6)
# Description: Briefly, cells of the human embryonic stem cell line H1 were cultured on MATRIGEL® (1:30 dilution) coated dishes and RPMI medium supplemented with 0.2% FBS, 100 ng/ml activin A and 20 ng/ml WNT-3a for one day, followed by treatment with RPMI media supplemented with 0.5% FBS and 100 ng/ml activin A, for an additional two days (Stage 1), then • DMEM/F12+2% FBS+50 ng/ml FGF7 for three days (Stage 2), then • T1: DMEM-High glucose+1% B27+0.25 μM Cyclopamine-KAAD+2 μM Retinoic acid (RA)+100 ng/ml of Noggin+FGF10 50 ng/ml for four days (Stage 3, T1) or, • T2: DMEM-High glucose+1% B27+0.25 μM Cyclopamine-KAAD+2 μM Retinoic acid (RA)+100 ng/ml of Noggin+FGF10 50 ng/ml+100 nM TPB for four days (Stage 3, T2), then • DMEM-High glucose+1% B27+100 ng/ml Noggin+1 μM ALK5 inhibitor II for six days (Stage 4)
# NKX6.1 was undetectable by immunohistochemistry.
# [3] = system: human embryonic stem cells line H1; assay: Immunocytochemistry of insulin and glucagon expression after Stage 4 TPB treatment (Example 1)
# Description: Cells of the human embryonic stem cells line H1 were cultured on MATRIGEL® (1:30 dilution) (BD Biosciences; Cat #356231)-coated dishes with RPMI medium (Invitrogen; Cat #: 22400)+0.2% FBS+100 ng/ml activin A (PeproTech; Cat #120-14)+20 ng/ml WNT-3a (R&D Systems; Cat #1324-WN/CF) for one day followed by treatment with RPMI media+0.5% FBS+100 ng/ml activin A for an additional two days (Stage 1), then, • DMEM/F12 (Invitrogen; Cat #11330-032)+2% FBS+50 ng/ml FGF7 (PeproTech; Cat #100-19) for three days (Stage 2), then • DMEM-High glucose (Invitrogen; Cat #10569)+1% B27+50 ng/ml FGF7+0.25 μM Cyclopamine-KAAD (Calbiochem; Cat #239804)+100 ng/ml Noggin (R&D Systems; Cat #3344-NG) for four days (Stage 3), then • DMEM-High glucose+1% B27 (Invitrogen; Cat #0791)+100 ng/ml Noggin+1 μM ALK5 inhibitor II (Axxora; Cat #ALX-270-445)+500 nM TBP ((2S, 5S)-(E, E)-8-(5-(4-(Trifluoromethyl)phenyl)-2,4-pentadiemoylamino) benzolactam) (Calbiochem; Cat #565740) for six days (Stage 4).
# As a control, separate populations of cells were treated with DMEM-High glucose+1% B27+100 ng/ml Noggin+1 μM ALK5 inhibitor II for six days (Stage 4, control group). […] Glucagon-expressing cells were also noted in the cultures that received TBP treatment. Most of the glucagon-expressing cells also co-expressed insulin (FIG. 1 panel A and B). […]
# [4] = system: human embryonic stem cells line H1; assay: FACS and immunocytochemistry after Stage 4 treatment with different concentrations of TPB (Example 1); details: for INS, percentage of the total cell population / NKX6.1, percentage of the total cell population / NKX6.1/INS, percentage of the total cell population / Synaptophysin, percentage of the total cell population: Stage 4 six days
# Description: In a separate experiment, cells of the human embryonic stem cells line H1 were cultured on MATRIGEL® (1:30 dilution) coated dishes with RPMI medium+0.2% FBS+100 ng/ml activin A+20 ng/ml WNT-3a for one day followed by treatment with RPMI media+0.5% FBS+100 ng/ml activin A for an additional two days (Stage 1), then • a. DMEM/F12+2% FBS+50 ng/ml FGF7 for three days (Stage 2), then • b. DMEM-High glucose+1% B27+0.25 μM Cyclopamine-KAAD+2 μM Retinoic acid (RA)+100 ng/ml of Noggin for four days (Stage 3), then • c. Treatment 1: DMEM-High glucose+1% B27+100 ng/ml Noggin+1 μM ALK5 inhibitor II+500 nM TBP for six days (Stage 4, Treatment 1), or • d. Treatment 2: DMEM-High glucose+1% B27+100 ng/ml Noggin+1 μM ALK5 inhibitor II+100 nM TBP for six days (Stage 4, Treatment 2), or • e. Treatment 3: DMEM-High glucose+1% B27+100 ng/ml Noggin+1 μM ALK5 inhibitor II+20 nM TBP for six days (Stage 4, Treatment 3), or • f. Treatment 4: DMEM-High glucose+1% B27+100 ng/ml Noggin+1 μM ALK5 inhibitor II for six days (Stage 4, Treatment 4).
# Immunocytochemistry analysis was used to assess the effects of the different concentrations of TPB on the formation of the cells of the present invention. […] FACS analysis confirmed that both treatments gave rise to 12% single insulin expressing cells in vitro and […] of that population also expressed NKX6.1 (Table 1—NKX6.1/INS expressing cells were 2.4% of the total population).
# [5] = system: human embryonic stem cells line H1; assay: FACS after six, nine or twelve days of Stage 4 TPB treatment (Example 3); details: 500 nM TPB
# Description: In another experiment, cells of the human embryonic stem cells line H1 were cultured on […]® (1:30 dilution) coated dishes with RPMI medium+0.2% FBS+100 ng/ml activin A+20 ng/ml WNT-3a for one day followed by treatment with RPMI media+0.5% FBS+100 ng/ml activin A for an additional two days (Stage 1), then • DMEM/F12+2% FBS+50 ng/ml FGF7 for three days (Stage 2), then • DMEM-High glucose+1% B27+50 ng/ml FGF7+0.25 μM Cyclopamine-KAAD+2 μM Retinoic acid (RA)+100 ng/ml of Noggin+20 ng/ml Activin A+a p38 kinase inhibitor (JNJ3026582, at 2.5 μM) for four days (Stage 3), then • Treatment 10: DMEM-High glucose+1% B27+100 ng/ml Noggin+1 μM ALK5 inhibitor II+500 nM TPB for six days (Stage 4, Treatment 10), or • Treatment 11: DMEM-High glucose+1% B27+100 ng/ml Noggin+1 μM ALK5 inhibitor II+500 nM TPB for nine days (Stage 4, Treatment 11), or • Treatment 12: DMEM-High glucose+1% B27+100 ng/ml Noggin+1 μM ALK5 inhibitor II+500 nM TPB for twelve days (Stage 4, Treatment 12)
# [6] = 100 nM TPB at Stage 3 for four days (T2) compared to control group (T1)
# [7] = cultures treated with TPB, immunocytochemistry
# [8] = both 500 nM and 100 nM TPB treatments, FACS
# [9] = Stage 4 for nine days (Treatment 11)
# [10] = Stage 4 for six days (Treatment 10)
# [11] = Stage 4 for twelve days (Treatment 12)
compound,measurement,setting,value
"CC(C)[C@H]1C(=O)N[C@H](CO)Cc2c[nH]c3cccc(c23)N1C [ILV, Indolactam V]",type of insulin expressing cells formed,[1]; immunocytochemistry,cells co-expressing insulin and glucagon
same,"GCG (glucagon expressing cells), percentage of the total cell population",[1],12% and 12.6%
same,"INS (single insulin expressing cells), percentage of the total cell population",[1],3%
same,"INS/GCG (insulin and glucagon co-expressing cells), percentage of the total cell population",[1],12.9%
same,"Synaptophysin, percentage of the total cell population",[1],56.8%
"CCCCCCCCCCCCCC(=O)O[C@@H]1[C@@H](C)[C@@]2(O)[C@@H](C=C(CO)C[C@]3(O)C(=O)C(C)=C[C@@H]23)[C@@H]2C(C)(C)[C@]12OC(C)=O [PMA, phorbol-12-myristate-13-acetate]",type of insulin expressing cells formed,[1]; immunocytochemistry,cells co-expressing insulin and glucagon
"CC(C)[C@H]1C(=O)N[C@H](CO)Cc2cc(NC(=O)/C=C/C=C/c3ccc(C(F)(F)F)cc3)ccc2N1C [TPB, (2S, 5S)-(E, E)-8-(5-(4-(Trifluoromethyl)phenyl)-2,4-pentadiemoylamino) benzolactam]",NKX6.1 by immunohistochemistry,[2]; 100 nM TPB at Stage 3 for four days (T2),undetectable
same,expression of NKX6.1,[2]; [6],significant down-regulation
same,expression of PDX1,[2]; [6],significant down-regulation
same,expression of PTF1 alpha,[2]; [6],significant down-regulation
same,type of insulin expressing cells formed,[1]; immunocytochemistry,demonstrated the formation of single insulin expressing cells
same,"GCG (glucagon expressing cells), percentage of the total cell population",[1],4.6%
same,"INS (single insulin expressing cells), percentage of the total cell population",[1],12%
same,"INS/GCG (insulin and glucagon co-expressing cells), percentage of the total cell population",[1],7.1%
same,"Synaptophysin, percentage of the total cell population",[1],30.6%
same,insulin expressing cells that co-expressed NEUROD,[1]; [7],majority
same,insulin expressing cells that co-expressed NKX6.1,[1]; [7],20%
same,insulin expressing cells that co-expressed PDX1,[1]; [7],20%
same,insulin expressing cells that co-expressed somatostatin or ghrelin (GHRL),[1]; [7],Very few
same,insulin-expressing cells,"[3]; 500 nM at Stage 4 for six days with Noggin and ALK5 inhibitor II, vs control without it, immunocytochemistry",increase
same,"insulin expressing cells that are single endocrine hormone expressing cells (no glucagon, somatostatin, ghrelin)","[3]; 500 nM at Stage 4 for six days, share of insulin expressing cells",about 60%
same,insulin and glucagon co-expression,"[4]; 20 nM TPB, similar to the control group, immunocytochemistry",most cells co-expressed insulin and glucagon
same,number of single insulin-expressing cells,"[4]; 500 nM and 100 nM TPB treatment groups, immunocytochemistry",Significant increases
same,"INS, percentage of the total cell population","[4]; TPB 100 nM, FACS",14.4%
same,"NKX6.1, percentage of the total cell population","[4]; TPB 100 nM, FACS",34.8%
same,"NKX6.1/INS, percentage of the total cell population","[4]; TPB 100 nM, FACS",3.1%
same,"Synaptophysin, percentage of the total cell population","[4]; TPB 100 nM, FACS",47.6%
same,"INS, percentage of the total cell population","[4]; TPB 500 nM, FACS",9.4%
same,"NKX6.1, percentage of the total cell population","[4]; TPB 500 nM, FACS",45.7%
same,"NKX6.1/INS, percentage of the total cell population","[4]; TPB 500 nM, FACS",2.4%
same,"Synaptophysin, percentage of the total cell population","[4]; TPB 500 nM, FACS",38.3%
same,single insulin expressing cells,[4]; [8],12%
same,single insulin expressing population that also expressed NKX6.1,[4]; [8],15%
same,"Glucagon, percentage of the total cell population",[5]; [9],6.6%
same,"Insulin, percentage of the total cell population",[5]; [9],10.0%
same,"Insulin/Glucagon, percentage of the total cell population",[5]; [9],7.8%
same,"NKX6.1, percentage of the total cell population",[5]; [9],33.5%
same,"NKX6.1/Insulin, percentage of the total cell population",[5]; [9],1.0%
same,"Synaptophysin, percentage of the total cell population",[5]; [9],43.5%
same,"Glucagon, percentage of the total cell population",[5]; [10],2.0%
same,"Insulin, percentage of the total cell population",[5]; [10],27.8%
same,"Insulin/Glucagon, percentage of the total cell population",[5]; [10],16.4%
same,"NKX6.1, percentage of the total cell population",[5]; [10],44.2%
same,"NKX6.1/Insulin, percentage of the total cell population",[5]; [10],11.0%
same,"Synaptophysin, percentage of the total cell population",[5]; [10],49.7%
same,"Glucagon, percentage of the total cell population",[5]; [11],4%
same,"Insulin, percentage of the total cell population",[5]; [11],4.4%
same,"Insulin/Glucagon, percentage of the total cell population",[5]; [11],6.3%
same,"NKX6.1, percentage of the total cell population",[5]; [11],32.5%
same,"NKX6.1/Insulin, percentage of the total cell population",[5]; [11],1.0%
same,"Synaptophysin, percentage of the total cell population",[5]; [11],37.6%
